The results in this text go back to ChEMBL document CHEMBL1147127, “Halogenated cyclic peptides isolated from the sponge Corticium sp” (J Nat Prod, 2007).

The test system of the data set is HCT-116. Description: Cytotoxicity against HCT116 cells. The class given is cell-based. The note with it: human.

As to `Cn1c(C(=O)NCC(=O)N[C@H]2CNC(=O)[C@@H](Cc3c[nH]c4ccc(Br)cc34)NC(=O)[C@@H](O)CNC(=O)[C@@H](CC(N)=O)NC2=O)cc(Cl)c1Cl` [CYCLOCINAMIDE B], the Activity entry is listed as “Not Active”.
